Data published in ChEMBL document CHEMBL1142160, “Overexpression and initial characterization of the chromosomal aminoglycoside 3'-O-phosphotransferase APH(3')-IIb from Pseudomonas aeruginosa” (2007).

What was measured:
Assay type in all cases: functional
[1] = test system: Pseudomonas aeruginosa; assay: Antibacterial activity against Pseudomonas aeruginosa ATCC 27853
[2] = test system: Escherichia coli; assay: Antibacterial activity against Escherichia coli BL21(DE3)
[3] = test system: Escherichia coli; assay: Antibacterial activity against Escherichia coli BL21(DE3) expressing Pseudomonas aeruginosa APH(3')-2b

GENTAMICIN
MIC [1]: 2 µg/mL | MIC [2]: 6 µg/mL | MIC [3]: 6 µg/mL
